Data on one compound can be found in article PMC11982498 (Redox Biology, 2025).

The subject of assay [1] is bio-(G2C4)6 (DNA, i motif) GGCCCCGGCCCCGGCCCCGGCCCCGGCCCCGGCCCC
The experiment in a line: SPR. The settings on record: K+ 100 mM; 20 mM MES, pH 5.5, 25 °C.

Another assay concerns BCL-2 promoter i-motif. The experiment in a line: TO displacement assay, BCL-2 i-motif. It counts as binding. The settings on record: BPES buffer pH 5.5. The procedure: Figure S4. TO displacement and UV titration experiments were performed to examine the effects of B14 and A22 on BCL-2 promoter i-motif. (A-B) TO displacement was performed on BCL-2 promoter i-motif annealed in 1XBPES buffer at pH 5.5 with increasing amount of B14 and A22. (C) The above relative TO displacement ratio were statistically analyzed.
DNA oligonucleotides were diluted to 1 μM with 1 × PBES buffer at pH 5.5, annealed at 95 °C for 10 min, cooled to room temperature, and stored at 4 °C for future use. TO dye (1 μM) was added to the DNA solution followed with incubation for 1 h. The spectra of 100 μL mixture with addition of different equivalent compounds at 25 °C were recorded based on fluorescence emission (λex = 480 nm).
TO displacement ratio (%) = (F0 − FC) / (F0 − FB) * 100.
F0 and FC were the fluorescence intensity of TO at 536 nm with DNA before and after adding compounds, respectively. FB was the fluorescence intensity of TO at 536 nm with buffer only.

Assay [2] deals with BAX gene transcription in SH-SY5Y cells. As to the kind of experiment: Real-time RT-PCR in 25 μM Aβ1-42 cell model, BAX. It counts as cell-based, human. The procedure: SH-SY5Y cells were treated with or without B14, and total RNA was subsequently isolated and purified. Reverse transcription was performed using a cDNA synthesis kit. The relative transcription levels of the genes were evaluated through quantitative real-time PCR using the SYBR Green-based method, as described in the Supplementary Date. Details regarding the primer sequences and the raw data can be found in Table S7 and Table S8.
^a -∆∆Ct = -[(Ct value of genes in treated sample - Ct value of genes in control) - (Ct value of β-actin in treated sample - Ct value of β-actin in control)]. ^b F: The relative expression fold.
Experiment 2: The Ct values of BCL-2 and Bax in 25 μM Aβ1-42 model with different concentration of B14.
Total RNA was extracted from cells and mice liver tissue using RNAiso Plus (Takara, 9109, Japan). Following sample homogenization, chloroform was added, and the solution was allowed to have phase separation into an upper aqueous layer (containing RNA), an interphase, and a lower organic layer (containing DNA and proteins). RNA was precipitated from the aqueous phase using isopropanol, while DNA was precipitated from the aqueous-organic interphase using ethanol. Complementary DNA (cDNA) was synthesized using the One-Step RT-PCR Kit (Takara, Cat#639503, Japan).
Quantitative real-time polymerase chain reaction (qRT-PCR) was performed using the 2× RealStar SYBR Mixture (GenStar, Cat# A301-10, Guangzhou, China) on a LightCycler 480 II real-time PCR system (Roche, USA). Data were analyzed using the 2^−ΔΔCt method. Actin served as the internal control, and relative mRNA levels were normalized accordingly.

The target of the next assay is T1, Aβ1-42 (Homo sapiens, UniProt P05067).
T1 construct: Aβ1-42 was purchased from Gill Biochemicals Ltd (Shanghai, China); purchased Gill Biochemicals Ltd (Shanghai, China)
As to the kind of experiment: Circular dichroism of Aβ1-42 secondary structure. In kind it is biochemical. The settings on record: 20 μM compound, 72 h. The procedure: The circular dichroism (CD) experiment was performed to investigate the effect of B14 (20 μM) or Curcumin (20 μM) on the change of Aβ1-42 secondary structure. The Aβ1-42 solutions (100 μM) were co-incubated with B14 (20 μM) or Curcumin (20 μM) at 37 °C for 72h. Ellipticity changes of Aβ1-42 were monitored employing a Chirascan CD spectropolarimeter (Chirascan, England).
Circular dichroism (CD) experiment was performed to investigate the effect of B14 (20 μM) and Curcumin (20 μM) on the change of Aβ1-42 secondary structure. The Aβ1-42 solutions (100 μM) were co-incubated with B14 (20 μM) and Curcumin (20 μM) at 37 °C for 72h. Ellipticity changes of Aβ1-42 were monitored employing a Chirascan CD spectropolarimeter (Applied Photophysics, UK).

In assay [3] the test system is MDA, SOD, GSH-Px, CAT in hippocampus of APP/PS1 mice. As to the kind of experiment: Biochemical parameters analysis (oxidative stress) in hippocampus. It counts as in vivo. The source says: Five months old male APP/PS1 mice, weighing 25–33 g, were purchased from Guangdong Medical Laboratory Animal Center and housed in the Laboratory Animal Center of Sun Yat-sen University (Guangzhou, China) for experimentation. All procedures were approved by the Animal Care and Use Committee of Sun Yat-sen University and complied with legal requirements and national guidelines for the care and maintenance of laboratory animals (Approval No. SYSU-IACUC-2024-002032). The mice were housed in a specific pathogen-free environment with a controlled temperature of 22 ± 1 °C and a 12-h dark/light cycle. The mice were fed with a standard diet, and 30 mice were randomly divided into 6 groups (N = 5). Compound B14 was dissolved in saline and administered at doses of 10, 20, or 40 mg/kg. APP/PS1 male mice were grown until 6 months of age, and then injected intraperitoneally with compound B14 every other day for 60 days. […]
The hippocampi were homogenized in normal saline containing protease inhibitors. The homogenate was centrifuged at 2500 rpm for 10 min, and the protein concentration in the supernatant was measured by using the bicinchoninic acid (BCA, Beyotime, Jiangsu, China) method. The levels of malondialdehyde (MDA) and the activities of superoxide dismutase (SOD), glutathione peroxidase (GSH-Px) and […] (CAT) were determined by using relevant assay kits (Beyotime, Jiangsu, China).

Several values for one entry are separate records, joined by “and”; a condition that tells them apart may be missing. Identical values can stand only once.

T1 sequence (P05067 672-713 limits assumed): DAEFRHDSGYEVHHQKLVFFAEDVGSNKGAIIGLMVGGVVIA

Consider `O=C(CCN1CCOCC1)Nc1ccc2c(c1)c(=O)c1cc(NC(=O)CCN3CCOCC3)ccc1n2-c1ccc2occc2c1` [Compound B14], for which the KD in assay [1] was 33.30 µM. The “Relative TO displacement ratio” value with BCL-2 promoter i-motif is 65% and 65.7%. Also, in assay [2] (25 μM Aβ1-42 + 6.25 μM B14), the “-∆∆Ct, BAX” value is recorded as -1.71 and the “F = 2^-∆∆Ct (relative expression fold), BAX” value came out at 3.23. Besides, in assay [2] (25 μM Aβ1-42 + 12.5 μM B14), the “-∆∆Ct, BAX” value was -1.09 and the “F = 2^-∆∆Ct (relative expression fold), BAX” value is 2.13. In assay [2] (25 μM Aβ1-42 + 25 μM B14), the “-∆∆Ct, BAX” value is listed as -0.80 and the “F = 2^-∆∆Ct (relative expression fold), BAX” value is recorded as 1.71. Also, the “CD signal intensity of Aβ1-42” value on Aβ1-42 is on record as “much decreased”. Further, in assay [3], the MDA level result is given as “reduce the levels of lipid peroxides MDA”; the “levels of antioxidant enzymes” value was “restore the levels of antioxidant enzymes (SOD, GSH-Px, and CAT)”.
